According to paper PMC4674085, “Towards Prebiotic Catalytic Amyloids Using High Throughput Screening” (PLoS ONE, 2015):
Peptide text beside a SMILES is read from it.

Assays:
[1] = Plate reader 4NPA hydrolysis kinetics of purified peptide amyloids at pH 7.3; format: biochemical; conditions: for k cat/K M = k 2 from linear fit to v 0 = [E]0 k 2[S] / k cat/K M / K M / k cat: 4NPA hydrolysis; for k cat/K M = k 2 from linear fit to v 0 = [E]0 k 2[S]: pH 7.3, plate reader A400, triplicate (36 without replicates); for k cat/K M / K M / k cat: pH 7.3 HEPES with zinc(II), 20 μM purified peptide; for k cat/K M: 0.1-1.0 mM 4NPA, 1% CH3CN, A400, Michaelis-Menten fit, triplicate (duplicate for 8, 27, 34, 35); for k cat/K M / k cat: per monomer peptide; for K M / k cat: Michaelis-Menten fit
Description: The reaction buffer consisted of the same buffer as the fibrillization buffer without ZnCl2 and with 1.33 mM 4NPA prepared from a 100 mM stock in CH3CN. The samples of the amyloid library were mixed 1:3 with the reaction buffer yielding 40 μM peptide and, when present 250 μM zinc(II). The absorbance measurements were performed in a BMG Pherastar platereader with a 400 nm band-pass filter (10 nm bandwidth) in 96-well Nunclon Delta surface plates or 384-well Greiner Bio-One non-bind black μclear plates.
The kinetics assays performed on the purified peptides were prepared similarly except that the peptide concentration was 20 μM in the reaction. Furthermore, the various substrate concentrations and replicate samples were randomly distributed over the plate to minimize systematic errors. Various 4NPA concentrations (i.e. 0.1 mM, 0.2 mM, 0.4 mM, 0.6 mM, 1.0 mM) were added from a 100 times stock so that the final CH3CN concentration was always 1%. The linear part of the hydrolysis activity was fit with an extinction coefficient of ε = 9700 M^-1cm^-1 and corrected for the background reaction rate of buffer alone (v bg = 5.0 × 10^-6 Ms^-1) to obtain the initial reaction rate v 0. The average of the initial reaction rates at each substrate concentration were then fit to the Michaelis-Menten type kinetics to obtain k cat, K M and k cat/K M always calculated per monomer peptide. The background reaction rate was obtained similarly using 5 replicates.

[2] = Thioflavin T fluorescence (ThT); format: physicochemical; conditions: crude peptide fibrillized at 160 μM, mixed 10:1 with 50 μM ThT, ex 440 nm em 480 nm
Description: The samples of the amyloid library (50 mM HEPES pH 7.3 or 50 mM NaOAc pH 4) were mixed 10:1 with 50 μM ThT and the increase in fluorescence was measured in a 384-well plate in a BMG Pherastar platereader (ex: 440 nm em: 480 nm). The background signal from the peptides without ThT was subtracted from the one with the ThT present in the sample. Due to the large dynamic range of the signals among the many samples, the measurements were made at two different gain settings to ensure that all of the signals fell within the measureable range.
(§1) Table A and associated data: Biophysical characterization of library
Sequence ThT1 CD2 FTIR3 EM4 ThT CD FTIR EM X-ray5
1. Fold increase in ThT ﬂuorescence over background. […]

[3] = Circular dichroism (CD), secondary structure of aggregates; format: physicochemical; parameters: key: β+: has minimum near 217 nm; β++: has minimum near 217 nm and a maximum near 197 nm; −: signal too weak to interpret; ?: spectra not typical of any secondary structure
Description: The concept of creating an amyloid library out of a peptide library is only meaningful if the vast majority of the peptides actually form amyloids in at least one of the conditions tested. To establish the validity of our amyloid library we measured circular dichroism (CD), Fourier transform infrared spectroscopy (ATR-FTIR), as well as thioflavin T (ThT) fluorescence of peptides 1–33 at pH 7.3 (50 mM HEPES) and pH 4 (50 mM NaOAc) (see interactive Table A and associated data in S1 File). Based on the analysis of the CD and ATR-FTIR spectra (shown in the interactive Table A in S1 File) all the peptides formed β-structured aggregates in at least one condition. Most of the 33 peptides induced a significant increase in ThT fluorescence in at least one condition. […] The fibrils from a selection of the active peptides were aligned and analyzed by X-ray diffraction (Figures C and D in S1 File). In each case we observed the cross-β diffraction pattern typical of amyloid fibrils, although the degree of sample alignment varied. For two samples, 14 and 27, the difference in meridional and equatorial diffraction intensities was small but easily detected in a plot of the angular dependence of the intensity (Figure D in S1 File). The conclusion that can be drawn out of the multiple analysis techniques is that the 33 peptides that comprise the library are overwhelmingly prone to form fibril-like, β-structured aggregates. The cross-β diffraction of the tested aggregates would imply that they are more specifically all amyloidogenic.
CD measurements were carried out on a Jasco J815. Samples were prepared by centrifuging the amyloid library at 25,000 g for 10 min and then removing the supernatant. The pellets were resuspended at an approximate concentration of 100 μg/ml in 10 mM HEPES pH 7.3 (for mixtures from 50 mM HEPES) or 10 mM NaOAc pH 4 (for mixtures from 50 mM NaOAc), the suspensions were then treated with an ultrasonic probe for 5 s, upon which the solutions were placed in 1 mm cuvettes, diluted as necessary to maintain the detector voltage below 600 V and scanned from 260–190 nm at 50 nm/min, 1 nm band-pass, 2 second integration, averaged over 3 repetitions.
as §1
(§2) Sequence ThT1 CD2 FTIR3 EM4 ThT CD FTIR EM X-ray5 […]
2. […]

[4] = ATR-FTIR, amide I peak of aggregates; format: physicochemical; parameters: key: indicates that no peak was observed within the typical range of stretching frequencies forβ-structure (between dashed lines at 1638 cm−1 and 1615 cm−1); conditions: air-dried pellet, crude peptide
Description: Samples were prepared as for the CD measurements, but instead of re-suspending the samples after centrifugation, 3 μl of H2O were added to the pellet so that it could be placed onto the diamond ATR cell of a Bruker Alpha-p ATR-FTIR spectrometer followed by air-drying before measuring the spectra. Blank subtraction was performed with an empty cell (air) and all measurements were performed without the pressure applicator.
as §1, §2
(§3) 3. The peak position in amide I region is given in cm−1. […]

[5] = Transmission electron microscopy (TEM) of fibrils; format: physicochemical; parameters: key: +: ﬁbrils present; −: absent in EM micrographs; conditions: uranyl acetate stain
Description: The samples of the amyloid library (50 mM HEPES pH 7.3 or 50 mM NaOAc pH 4) were applied directly to glow-discharged carbon-coated grids, washed and then stained with uranyl acetate. Images were recorded on a Philips CM 12 electron microscope.
as §1, §2
4. (+) ﬁbrils present or (−) absent in EM micrographs. […]

[6] = Aggregation at pH 4 from soluble material left after 100,000 g centrifugation; format: physicochemical; conditions: 40 μM purified peptide, pH 4, soluble material in supernatant of 100,000 g centrifugation
[7] = X-ray fiber diffraction of aligned fibrils; format: physicochemical; conditions: washed pellets dried between glass capillaries, room temperature
Description: The samples were centrifuged, the pellet resuspended (ultrapure water or 10 mM NaOAc pH 4) and centrifuged again. The washed pellets were resuspended in a minimal amount of water and 4 μl of the suspension were pipetted between the melted ends of two glass capillaries, which were then left to dry overnight in a sealed petri dish. The dried material was placed in an X-ray beam (Rigaku MicroMax-007HF) at room temperature for a 20 min exposure and diffraction data was collected on a Mar345 image plate detector.
Table A and associated data: Biophysical characterization of library […]
1. Fold increase in ThT ﬂuorescence over background.
2. CD spectra classiﬁed as follows: (β+) has minimum near 217 nm, (β++) has minimum near 217 nm and a maximum near 197 nm, (−) signal too weak to interpret, (?) spectra not typical of any secondary […]
as §3
within the typical range of stretching frequencies forβ-structure (between dashed lines at 1638 cm−1 and […]
4. (+) ﬁbrils present or (−) absent in EM micrographs.
5. Diﬀraction images recorded for the aligned ﬁbrils of 5 diﬀerent peptides (see materials and methods).

[8] = NMR-based 4NPA hydrolysis assay at pH 4.3; format: biochemical; conditions: 4NPA hydrolysis by 1D-1H NMR, 50 mM d3-NaOAc pH 4.3, 2% d6-DMSO, 40 μM total purified peptide (mixture 20 μM each), 0.9 mM 4NPA, 25°C, over 15 days, first order fit, no zinc(II)
Description: Purified peptides were solubilized in deuterated DMSO with 1% TFA at a concentration of 4 mM and subsequently diluted to 160 μM in 50 mM deuterated NaOAc buffer at pH 4.3. In the case of the peptide mixture fibrillization (12/21), each peptide was 80 μM. Fibrillization occurred over 5 days after which the sample was diluted to 40 μM total peptide in 50 mM buffer with 0.9 mM 4NPA (from a 90 mM stock solution in d6-DMSO) and a final concentration of d6-DMSO of 2%. From this reaction mixture 500 μl was transferred to a 5 mm NMR tube and measurements were performed in a 600 MHz Bruker NMR spectrometer equipped with a cryo-probe.
The hydrolysis kinetics were monitored in a continuous series of 1D-^1H experiments each consisting of 32 scans at 25°C and each requiring 17 min. In this manner, several time segments lasting between 8 and 17 hours were collected over a period of 15 days. Between measurements, the samples were kept at 25°C.
Data processing and peak integration was performed with Topspin3.2 (Bruker). Relevant peaks used for the analysis were the 4 aromatic protons of both 4NPA and of its product (p-nitrophenol) as well as the methyl groups of 4NPA and acetic acid. The ratio of the sum of integrals for the product protons to the sum of integrals for all protons was used to calculate the substrate concentration. […]

[9] = pH 4.0, pellet (25,000 g, 10 min) resuspended ~100 μg/ml in 10 mM NaOAc pH 4, crude peptide
[10] = pH 7.3, pellet (25,000 g, 10 min) resuspended ~100 μg/ml in 10 mM HEPES pH 7.3, crude peptide

With `c1c[nH]cn1` [Imidazole, reference compound] the k cat/K M = k 2 from linear fit to v 0 = [E]0 k 2[S] [1] was 0.199 ± 0.008 M⁻¹ s⁻¹.
In the case of `CC(=O)N[C@@H](Cc1c[nH]cn1)C(=O)NCC(=O)N[C@@H](Cc1c[nH]cn1)C(N)=O` [Peptide 36, Ac-HGH-CONH2] (Ac-His-Gly-His-NH2), the k cat/K M = k 2 from linear fit to v 0 = [E]0 k 2[S] [1] is reported as 0.041 ± 0.005 M⁻¹ s⁻¹ and the “zinc(II) dependence of 4NPA hydrolysis activity” value ([1]; pH 7.3) is reported as “not zinc(II)-dependent”.
For “Ac-IHIHIQI-NH2 [Peptide 34, Ac-IHIHIQI-CONH2, reference compound]”, the “k cat/K M” value [1] was 15.76 ± 0.96 M⁻¹ s⁻¹, the “K M” value [1] was 1570 ± 290 µM and the k cat [1] was 2.47±0.32 10^-2s^-1.
With “Ac-YVHVAVHV-NH2 [Peptide 28, Ac-YVHVAVHV-CONH2]” the “ThT, fold increase in ThT fluorescence over background” value (from here on “ThT, fold increase”) ([2]; pH 4.0, 50 mM NaOAc) was 1 fold, the “ThT, fold increase” value ([2]; pH 7.3, 50 mM HEPES) was 114 fold and the “k cat/K M” value [1] was 0.215 ± 0.007 M⁻¹ s⁻¹. For the same molecule, the “K M” value [1] was 1950 ± 230 µM, the k cat [1] was 0.042±0.004 10^-2s^-1 and the CD spectrum class [3, 9] was “−”. For the same molecule, the CD spectrum class [3, 10] was “β+”, the “FTIR peak position in amide I region” value ([4]; pH 4.0 (50 mM NaOAc)) was “−” and the “FTIR peak position in amide I region” value ([4]; pH 7.3 (50 mM HEPES)) was 1624 cm⁻¹. The “EM, fibrils in EM micrographs” value ([5]; pH 7.3, 50 mM HEPES) was “+”.
In the case of “Ac-YVHVSVHV-NH2 [Peptide 10, Ac-YVHVSVHV-CONH2]”, the “ThT, fold increase” value ([2]; pH 4.0, 50 mM NaOAc) is reported as 1 fold, the “ThT, fold increase” value ([2]; pH 7.3, 50 mM HEPES) is reported as 29 fold and the k cat/K M = k 2 from linear fit to v 0 = [E]0 k 2[S] [1] is reported as 0.172 ± 0.003 M⁻¹ s⁻¹. The CD spectrum class [3, 9] was “−”, the CD spectrum class [3, 10] was “β+” and the “FTIR peak position in amide I region” value ([4]; pH 4.0 (50 mM NaOAc)) was “−”. For the same molecule, the “FTIR peak position in amide I region” value ([4]; pH 7.3 (50 mM HEPES)) was 1623 cm⁻¹ and the “EM, fibrils in EM micrographs” value ([5]; pH 7.3, 50 mM HEPES) was “+”.
With “Ac-YVSVSVHV-NH2 [Peptide 12, Ac-YVSVSVHV-CONH2]” the “aggregation behaviour at pH 4” value [6] was “began to aggregate within minutes”, the “ThT, fold increase” value ([2]; pH 4.0, 50 mM NaOAc) was 5 fold and the “ThT, fold increase” value ([2]; pH 7.3, 50 mM HEPES) was 183 fold. For the same molecule, the “X-ray diffraction of aligned fibrils” value [7] was “cross-β”, the CD spectrum class [3, 10] was “β++” and the “FTIR peak position in amide I region” value ([4]; pH 4.0 (50 mM NaOAc)) was 1621 cm⁻¹. The “FTIR peak position in amide I region” value ([4]; pH 7.3 (50 mM HEPES)) was 1623 cm⁻¹, the “k cat/K M” value [8] was 6145.6±8.5 10^-6M^-1s^-1 and the “EM, fibrils in EM micrographs” value ([5]; pH 4.0, 50 mM NaOAc) was “+”.
